Patent US5552155A, “Fusogenic lipsomes and methods for making and using same” (The Liposome Company, Inc., priority 1994, dated 1996)

Legend:
[1] = TNS fluorescence pH titration: apparent pKa and % charged of aminolipids in liposomal membranes; assay type: physicochemical; conditions: for Apparent pKa: in liposomes, from fit of TNS fluorescence titrations to Henderson-Hasselbach equation; for pKa's and relative charges at pH 7.5 (in words): compared with AL-1; for pKa in the lipid bilayer (text / figure legend): TNS fluorescence titration, 10 mole % AL-1 in EPC/Chol (55:45), no pH gradient (nigericin)
Protocol: Preparations were diluted to 0.25 mM total lipid in 5 mM HEPES, 5 mM ammonium, 2 μM TNS at pHs ranging from 3.0 to 10.0 The pH across the vesicle membranes was rendered equal by adding nigericin to a final concentration of 0.01 μM. The TNS fluorescence at each pH value was determined under the conditions given above.
*The data were derived from TNS fluorescence titrations. Curves for each
aminolipid were fitted to the HendersonHasselbach equation by iteratively
varying pKa and maximum and minimum fluorescence.

[2] = Lipid-mixing fusion assay by RET fluorescent probe dilution, EPC/DOPE/Chol liposomes; conditions: for order of fusion traces, uppermost-lowermost / fusion of liposomes / fusion rate (in words): 5 mole % aminolipid, FIG. 9; for order of fusion traces, uppermost-lowermost: EPC/Chol/DOPE (35:20:45); for fusion of liposomes / fusion rate (in words): EPC/DOPE/Chol (35:20:45)
Protocol: (§1) Fusion was monitored by the decrease in resonance energy transfer (RET) resulting from fluorescent probe dilution, as described by Struck et al. (1981). […] The external buffer was 20 mM HEPES (150 mM NaCl, pH 7.5). […] Labeled and unlabeled liposomes were mixed in a 1:3 ratio, and diluted to 0.2 mM total lipid. External buffer was exchanged for 300 mM sucrose, 1 mM citrate, pH 4.0, on Sephadex G-25 columns before diluting preparations to 10 mM lipid. For fusion assays, 20 μl of fluorescently labeled liposomes, and 60 μl unlabeled liposomes, were added to 3.92 ml of 20 mM HEPES, 150 mM NaCl, pH 7.5. After 5 min. of incubation at room temperature, a 3 ml aliquot was added to a cuvette, and the fluorescence was monitored over 5 minutes. Excitation and emission wavelengths were 465 and 535 nm, respectively, and an emission 530 nm cutoff filter was used. To dissipate the gradient and induce fusion, ammonium acetate was added to a final concentration of 100 mM at 30 seconds. The percent change in fluorescence (% F/Fmax) was determined by assigning zero fluorescence (F0) to a trace with no ammonium acetate added and Fmax to a trace measured after adding 100 μl of 25 mM Triton X-100, so that:
(§2) % (F/Fmax)=100×((F-F0)/(Fmax -F0))
To study the effect of aminolipid structure on the fusion of EPC/Chol/DOPE liposomes (35:20:45) liposomes were prepared with 5 mole % of the indicated aminolipid (AL-1-AL-6), an internal pH 4.0, 300 mM sodium citrate buffer, and an external 20 mM HEPES buffer (150 mM NaCl, pH 7.5). Fusion assays were carried out as described above.
(§3) Membrane fusion was monitored by a loss in RET between the fluorescently labeled lipids NBD-PE and Rh-PE. When liposomes containing both of these labels fuse with unlabeled liposomes, the resulting dilution of the fluorescent probes gives increased fluorescence for NBD-PE.

[3] = 2H-NMR phase behavior of AL-1-d4 in MLVs; assay type: physicochemical; conditions: for phase behavior by 2H-NMR (in words): 10 mole % AL-1-d4 in EPC/Chol (55:45)
Protocol: Freeze-thawed MLVs of 10 mole % AL-1-d4 in EPC/Chol (55:45) were prepared as described above in 100 mM ammonium acetate at pH 4.0 and pH 7.5 in deuterium-depleted water. Sample concentrations were approximately 150 mM total lipid. Broad line quadrupole spectra were recorded on a Bruker MSL200 spectrometer at 30.7 MHz, using a spin-echo sequence with a 5.3 μs 90° pulse and a 200 ms repeat delay. Temperature was maintained at 20° C. with a liquid nitrogen flow system. […] FIDs were transformed using 100 Hz line-broadening.
Freeze-thawed MLVs containing 5 mole percent AL-1-d4 in EPC/Chol (55:45) were prepared in 20 mM HEPES, 20 mM ammonium acetate, 150 mM NaCl, pH 4.0 and pH 7.5, using deuterium-depleted water. Sample concentrations were approximately 200 mM total lipid. ^2 H-NMR broadline spectra were recorded at 46.175 MHz, on a home-built 300 MHz spectrometer using a 5 μs 90° pulse, 50 μs interpulse spacing, 30.5 μs ring-down delay, and a 300 ms repetition time. A quadrupole echo sequence with eight-step phase cycling was used to accumulate 200,000 scans. The resulting free induction decay (FID) was transformed with 100 Hz line-broadening. High resolution ^31 P spectra were recorded at 81 MHz on a Bruker MSL200 spectrometer, using a 2.8 μs pulse and 30 s repeat. Temperature was maintained at 23 degrees Celsius with a liquid nitrogen flow system. The FID was accumulated over 1000 scans, and transformed with 50 Hz line broadening.
The use of MLVs in this experiment avoids the rapid tumbling of LUVs on the NMR time scale. […] At pH 7.5, the bilayer signal is no longer present, and a strong isotropic peak appears in the middle of the spectrum.

[4] = Lipid asymmetry (transport of aminolipid to the inner monolayer) by TNS fluorescence; assay type: physicochemical; conditions: internal pH 4, external pH 7.5
Protocol: Aliquots of 90 μl were added to 2.9 ml of 20 mM HEPES, 150 mM NaCl, 5 μM TNS, pH 7.5, and fluorescence was monitored over 5 minutes.
However, at higher concentrations, the fluorescence levels off and begins to decrease.
The slow decreases in fluorescence observed in these curves is a result of photobleaching of TNS during the course of the experiments. […] The rapid movement of the AL-1 across the bilayer is advantageous for its use in controlling fusion.

[5] = Lipid-mixing fusion assay by RET fluorescent probe dilution, EPC/Chol (55:45) liposomes; conditions: for ΔF/ΔFmax (fusion): pH gradient dissipated by ammonium acetate
Protocol: as §1, §2
The labeled and unlabeled liposomes were mixed in a 1:3 ratio and diluted to 0.20 mM total lipid. The pH gradient was dissipated by the addition of ammonium acetate to a final concentration of 100 mM at 30 seconds.
as §3

[6] = Aggregation / stability of aminolipid-containing liposomes; assay type: physicochemical
[7] = Lipid-mixing fusion assay by RET fluorescent probe dilution, EPC/DOPE/Chol liposomes
[8] = Table 1, from TNS fluorescence titrations
[9] = 10 mole % AL-1 in EPC/Chol (55:45)

SMILES: CCCCCCCC/C=C\CCCCCCCC(=O)OCC(CN(C)C)OC(=O)CCC (racemic) [AL-4]
- Apparent pKa ([1]; Table 1): 6.66
- % Charged at pH 7.5 [1, 8]: 13%
- pKa's and relative charges at pH 7.5 (in words) [1]: approach those for AL-1
- order of fusion traces, uppermost-lowermost [2]: AL-1, AL-5, AL-4, AL-3, AL-6, AL-2 and blank
- fusion of liposomes / fusion rate (in words) [2]: further increases in the fusion rate, with rates approaching those achieved with AL-1--containing liposomes

SMILES: CCCCCCCC/C=C\CCCCCCCC(=O)OCC(CN(C)C)OC(C)=O (racemic) [AL-3]
- pKa in the lipid bilayer (text / figure legend) [1]: 6.79
- % Charged at pH 7.5 [1, 8]: 16%
- % Charged at pH 7.5 [1]: 16%
- order of fusion traces, uppermost-lowermost [2]: AL-1, AL-5, AL-4, AL-3, AL-6, AL-2 and blank
- fusion of liposomes / fusion rate (in words) [2]: substantially greater fusion rate

SMILES: CCCCCCCCCC(=O)OCC(CN(C)C)OC(=O)CCCCCCCCC (racemic) [AL-6, ±-1,2-didecanoyl-1-N,N,-dimethyl-aminopropane]
- % Charged at pH 7.5 [1, 8]: 17%
- pKa's and relative charges at pH 7.5 (in words) [1]: approach those for AL-1
- order of fusion traces, uppermost-lowermost [2]: AL-1, AL-5, AL-4, AL-3, AL-6, AL-2 and blank
- fusion of liposomes / fusion rate (in words) [2]: only limited mixing

SMILES: [2H]/C(CCCCCCCC)=C(\[2H])CCCCCCCC(=O)OCC(CN(C)C)OC(=O)CCCCCCC/C([2H])=C(/[2H])CCCCCCCC (racemic) [AL-1-d4, rac-1-N,N-dimethylamino-2,3-bis(9,10-dideuteriooleoyl)propane]
- 2H-NMR quadrupolar splitting of signal believed to arise from aminolipid in HII phase ([3]; 5 mole % AL-1-d4, EPC/DOPE/Chol, pH 7.5, FIG. 8A): about 12 kHz
- phase behavior by 2H-NMR (in words) ([3]; pH 4.0): quadrupolar splittings for the chain-labeled positions of AL-1-d4, with the expected magnitude for lipid in the bilayer

SMILES: CCCCCCCC/C=C\CCCCCCCC(=O)OCC(CN(C)C)OC(=O)CCCCCCC/C=C\CCCCCCCC (centres unmarked) [AL-1, 1-N,N-dimethylamino dioleoyl propane]
- time until TNS fluorescence equal to that of EPC/Chol liposomes (virtually all AL-1 moved to the inner monolayer) [4, 9]: four
- transbilayer movement to the inner monolayer (in words) ([4]; pH gradient): virtually all of the AL-1 had moved to the inner monolayer
- ΔF/ΔFmax (fusion) ([5]; 10 mole % AL-1, EPC/Chol (55:45)): ~3%
- ΔF/ΔFmax (fusion) ([5]; 20 mole % AL-1, EPC/Chol (55:45)): ~3%
- degree of fusion (in words) ([5]; AL-1 in EPC/Chol (55:45)): limited degree of fusion
- ΔF/ΔFmax (fusion) ([2]; 5 mole % AL-1, EPC/DOPE/Chol (35:20:45), first 5 minutes): greater than 10%
- order of fusion traces, uppermost-lowermost [2]: AL-1, AL-5, AL-4, AL-3, AL-6, AL-2 and blank
- liposome stability (in words) ([6]; 5 mole % AL-1, EPC/DOPE/Chol (35:20:45), pH 4.0 and external pH 7.5): stable liposomes were prepared, and these remained stable when the external pH was increased to 7.5
- liposome aggregation (in words) ([6]; 10 mole % AL-1, EPC/DOPE/Chol 35:20:45, low pH): some aggregation of liposomes was observed at low pH
- liposome aggregation (in words) ([6]; 10 mole % AL-1, EPC/DOPE/Chol, DOPE above 35:20:45): rapid aggregation
- liposome aggregation (in words) [6, 9]: aggregated
- liposome aggregation (in words) ([6]; AL-1 greater than about 20 mole % in EPC/Chol, following extrusion): rapid and complete liposome aggregation
- phase behavior by 2H-NMR (in words) ([3]; pH 7.5): exists in separate fluid domains at pH 7.5
- fusion rate with increasing DOPE (in words) ([7]; 10 mole % AL-1, DOPE replacing EPC up to 35:20:45 EPC/DOPE/Chol, FIG. 6): Increasing fusion rates were evident with increasing DOPE concentrations
- ΔF/ΔFmax (fusion) ([7]; 10 mole % AL-1, EPC/DOPE/Chol 35:20:45, after 5 minutes): over 5%
- ΔF/ΔFmax (fusion) ([7]; 10 mole % AL-1, EPC/DOPE/Chol (30:25:45), over 5 minutes after gradient dissipation): ~10%

SMILES: CCCCCCCC/C=C\CCCCCCCC(=O)OCC(CN(C)C)OC(=O)CCCCCCCCC (racemic) [AL-5]
- % Charged at pH 7.5 [1, 8]: 14%
- pKa's and relative charges at pH 7.5 (in words) [1]: approach those for AL-1
- order of fusion traces, uppermost-lowermost [2]: AL-1, AL-5, AL-4, AL-3, AL-6, AL-2 and blank
- fusion of liposomes / fusion rate (in words) [2]: further increases in the fusion rate, with rates approaching those achieved with AL-1--containing liposomes

SMILES: CCCCCCCC/C=C\CCCCCCCC(=O)OCC(O)CN(C)C (racemic) [AL-2, ±-oleoyl-2-hydroxy-3-N,N-dimethylaminopropane]
- pKa in the lipid bilayer (text / figure legend) [1]: about 7.57
- Apparent pKa ([1]; Table 1): 7.57
- % Charged at pH 7.5 [1, 8]: 54%
- order of fusion traces, uppermost-lowermost [2]: AL-1, AL-5, AL-4, AL-3, AL-6, AL-2 and blank
- fusion of liposomes / fusion rate (in words) [2]: little increase in liposome fusion in comparison with liposomes not containing aminolipid
